Source: patent US4400517A, “Phosphoric esters derived from 1,2,4-triazole having an insecticidal, nematocidal and acaricidal action, and their preparation” (priority 1976, dated 1983)
Like-named read-outs stand apart in the source and are kept apart here.

Columns and labels:
Macrosiphum euphorbiae = experiment: Biological activity on Macrosiphum euphorbiae (Aphides); assay type: in vivo; conditions: potato plants, 24 h
Method: (1) Biological activity on Macrosiphum euphorbiae (Aphides)
Potato plants grown in pots were infested with adult females of aphides and, after several hours, were sprinked with an aqueous dispersion of the products under examination (see TABLE 5).
The percentage of mortality was assessed after 24 hours after the treatment (untreated plants=0).

Pieris brassicae = experiment: Biological activity on Pieris brassicae (Lepidoptera); assay type: in vivo; conditions: 48 h
Method: (2) Biological activity on Pieris brassicae (Lepidotera)
Cut-off cauliflower leaves were sprinkled with an aqueous dispersion of the products under examination (see TABLE 5).
After drying, the leaves were infested with 5-day old larvae. The percentage of mortality of the larvae (untreated leaves=0) was determined after 48 hours from treatment.

[1] = system: Leptinotarsa decemlineata; experiment: Biological activity on Leptinotarsa decemlineata (Coleoptera); assay type: in vivo; conditions: 48 h
Method: (3) Biological activity on Leptinotarsa decemlineata (Coleoptera)
Small potato plants grown in pots were infested with 4-day old larvae, and were then sprinkled with an aqueous dispersion of the products under examination (see Tables 4 and 5).
The mortality percentage (untreated small plants=0) was determined after 48 hours from treatment.

Culex pipiens = experiment: Biological activity on Culex pipiens larvae (Diptera); assay type: in vivo; conditions: 24 h
Method: (4) Biological activity on Culex pipiens (Diptera)
Into glasses containing an aqueous dispersion of the products under examination (see Tables 4 and 5) there were introduced mosquito larvae of third and fourth age.
The mortality percentage of the larvae (glasses containing pure water=0) was determined after 24 hours from treatment.

Tetranychus urticae [2] = experiment: Biological activity on adults of Tetranychus urticae (Acari); assay type: in vivo; conditions: 24 h
Method: (5) Biological activity on adults of Tetranychus urticae (Acari)
Discs of bean leaves were infested with adult acari and then sprinkled with an aqueous dispersion of the products under examination (see Tables 4 and 5).
The mortality percentage was determined after 24 hours from treatment (untreated leaf discs, mortality=0).

Tetranychus urticae [3] = experiment: Biological activity on Tetranychus urticae eggs (Acari); assay type: in vivo; conditions: bean leaf discs, 144 h
Method: (6) Biological activity on Tetranychus urticae (Acari)
Small discs of bean leaves were infested with Acari eggs and were then sprinkled with an aqueous dispersion of the products under examination (see Table 5).
The mortality percentage was determined after 6 days from treatment (untreated leaf discs, mortality=0).

Spodoptera littoralis = experiment: Biological activity on Spodoptera littoralis (Lepidoptera); assay type: in vivo; conditions: 48 h
Method: (7) Biological activity on Spodoptera littoralis (Lepidoptera)
Cut tobacco leaves were sprinkled with an aqueous dispersion of the products under examination (see Tables 4 and 5).
After drying, the leaves were infested with 5-day old larvae.
The percentage of mortality of the larvae was determined after 48 hours from treatment (untreated leaves, mortality=0).

Blatta orientalis = experiment: Biological activity on Blatta orientalis (Ortoptera); assay type: in vivo; conditions: Blatta orientalis, 48 h, read-out: Activity (mortality class), Blatta O.; for mortality at 0.01 g/m2: 0,01 g/m^2
Method: (10) Biological activity on Blatta orientalis (Ortoptera)
The bottom and walls of glass crystallizers were treated uniformly with an acetonic solution of the products under examination (see Tables 4 and 5). After evaporation of the solvent, into each crystallizer were introduced ten 80-100 days old neanides. The crystallizers were then closed with a metal net cover. After 24 hours from the start of the treatment, the insects were transferred to similar untreated crystallizers, and there were appropriately nourished in conventional manner.
The percentage of mortality (untreated insects=0) was determined after 48 hours from the start of the treatment.

Locusta M. = experiment: Activity on Locusta M.; conditions: in vivo
[4] = Toxicity on albino rats by oral administration; conditions: rat, in vivo
[5] = 1%o, Table 5, read-out: Activity (mortality class), Pieris B.
[6] = read-out: Activity (mortality class), Leptinotarsa D.
[7] = read-out: Activity (mortality class), Culex P. (larvae)
[8] = read-out: Activity (mortality class), Tetranychus U. (adults)
[9] = read-out: Activity (mortality class), Spodoptera L.
[10] = read-out: Activity (mortality class), Pieris B.
[11] = 0.02 ppm, Table 5, read-out: Activity (mortality class), Culex P. (larvae)
[12] = 2 ppm, Table 5, read-out: Activity (mortality class), Culex P. (larvae)
[13] = 0.01%o, Table 5, read-out: Activity (mortality class), Tetranychus U. (adults)
[14] = 0.01%o, Table 5, read-out: Activity (mortality class), Pieris B.
[15] = 0.05%o, Table 5, read-out: Activity (mortality class), Leptinotarsa D.
[16] = 1%o, Table 5, read-out: Activity (mortality class), Leptinotarsa D.
[17] = 1%o, Table 5, read-out: Activity (mortality class), Tetranychus U. (adults)
[18] = 1%o, Table 5, read-out: Activity (mortality class), Spodoptera L.

Row | SMILES | Activity (mortality class), Macrosiphum E. (Macrosiphum euphorbiae) | mortality at 0.1 % (Pieris brassicae; [5]) [%] | mortality at 0.1 % [1, 6] [%] | mortality at 2 ppm (Culex pipiens; [7]) [%] | mortality at 0.1 % (Tetranychus urticae [2]; [8]) [%] | Activity (mortality class), Tetranychus U. (eggs) (Tetranychus urticae [3]) | mortality at 0.1 % (Spodoptera littoralis; [9]) [%] | mortality at 1 g/m2 (Blatta orientalis; 1 g/m^2, Table 5) [%] | Activity (mortality class), Locusta M. (Locusta M.) | mortality at 0.1 % (Pieris brassicae; [10]) [%] | mortality at 1 g/m2 (Blatta orientalis) [%] | LD50 [4] [mg/kg] | mortality at 0.02 ppm (Culex pipiens; [11]) [%] | mortality at 2 ppm (Culex pipiens; [12]) [%] | mortality at 0.001 % (Tetranychus urticae [2]; [13]) [%] | mortality at 0.001 % (Pieris brassicae; [14]) [%] | mortality at 0.005 % [1, 15] [%] | mortality at 0.01 g/m2 (Blatta orientalis; Table 5) [%] | further results
1 | C=CCn1nc(C=C(Cl)Cl)nc1OP(=S)(OCC)OCC [M 8764] | ++ (100% of mortality) | 100 | 100 | 100 | 100 | ++ (100% of mortality) | 100 | 100 | ++ (100% of mortality) | – | – | – | – | – | – | – | – | – | mortality at 0.005 % [1, 6]: 100%; mortality at 0.02 ppm (Culex pipiens; [7]): 100%; mortality at 0.001 % (Tetranychus urticae [2]; [8]): 100%; mortality at 0.005 % (Spodoptera littoralis; [9]): 100%
2 | CCCCn1nc(C=C(Cl)Cl)nc1OP(=S)(OCCC)OCCC [M 8475] | ± (10-69% of mort.) | – | 100 | 100 | 10 to 69 | ++ (100% of mortality) | 10 to 69 | – | ± (10-69% of mort.) | 100 | 0 to 9 | – | – | – | – | – | – | – | –
3 | CCOP(=S)(OCC)Oc1nc(Cl)n(C(C)C)n1 [Miral®, Diethyl-(1-isopropyl-5-chloro-1,2,4-triazole-3-yl) phosphoro-thionate, reference compound] | – | – | – | – | – | – | – | – | – | – | – | 60 | – | – | – | – | – | – | –
4 | CCOP(=S)(OCC)Oc1nc(C(O)CSC)nn1-c1ccccc1 (stereo not shown) [M 9173] | ++ (100% of mortality) | – | 100 | 100 | 100 | – | 100 | – | – | 100 | 100 | – | – | – | – | – | – | – | –
5 | CCOP(=S)(OCC)Oc1nc(C(Cl)=C(Cl)Cl)nn1C [M 8560] | – | – | 100 | – | 100 | – | 100 | – | – | 100 | 100 | 1200 | 10 to 69 | 100 | 100 | – | – | – | mortality at 0.001 % (Pieris brassicae; [10]): 70 to 99%; mortality at 0.005 % [1, 6]: 100%; mortality at 0.005 % (Spodoptera littoralis; [9]): 70 to 99%
6 | CCOP(=S)(OCC)Oc1nc(C(C)=C(Cl)Cl)nn1C [M 8550] | – | 100 | – | – | – | – | – | 100 | – | – | – | 1700 | 70 to 99 | 100 | 10 to 69 | 100 | 100 | 10 to 69 | mortality at 0.1 % [1, 16]: 100%; mortality at 0.1 % (Tetranychus urticae [2]; [17]): 100%; mortality at 0.1 % (Spodoptera littoralis; [18]): 100%
7 | C=Cc1nc(OP(=S)(OCC)OCC)n(C)n1 [M 8476] | – | – | – | – | – | – | – | – | ++ (100% of mortality) | – | – | – | – | – | 100 | – | – | 100 | mortality at 0.02 ppm (Culex pipiens; [7]): 10 to 69%
8 | CCCOP(=S)(OCCC)Oc1nc(C=C(Cl)Cl)nn1C [M 8448] | ++ (100% of mortality) | 100 | – | – | – | ++ (100% of mortality) | – | 100 | ± (10-69% of mort.) | – | – | – | – | 100 | 100 | 10 to 69 | 100 | – | mortality at 0.1 % [1, 16]: 100%; mortality at 0.1 % (Tetranychus urticae [2]; [17]): 100%; mortality at 0.1 % (Spodoptera littoralis; [18]): 100%
9 | CCCCn1nc(C=C(Cl)Cl)nc1OP(=S)(OCC)OCC [M 8474] | – | – | – | – | – | – | – | – | – | – | – | – | 100 | – | 0 to 9 | 100 | 100 | 0 to 9 | mortality at 0.005 % (Spodoptera littoralis; 0.05%o, Table 5, read-out: Activity (mortality class), Spodoptera L.): 100%
